{"source": "patent US9994560B2", "about": "“HPTP-β inhibitors” (Aerpio Therapeutics Inc., priority 2014, dated 2018)", "key": {"Tie2": {"system": "Tie2", "test": "Tie2 phosphorylation, immunoprecipitation and western blot in HUVECs", "format": "cell-based, human", "details": "HUVECs treated for 10 minutes; anti-phosphotyrosine western blot (FIG. 44)", "experimental": "Human umbilical vein endothelial cells (HUVECs) were isolated freshly from human placenta, grown in endothelial growth medium, and used before passage 6. To evaluate the effects of the compounds on phosphorylation of Tie2 and downstream signaling molecules, cells were serum-starved in endothelial basal medium without added growth factors for 3 hours before stimulation. Cells were treated for 10 minutes with vehicle (DMSO), or compounds A, B, C, or D in DMSO. Cells were lysed in RIPA buffer (150 mM NaCl, 1% IGEPAL CA-630, 0.05% sodium deoxycholate, 0.1% SDS, 20 mM Tris-HCl at pH 7.6, 1 mM EDTA, 1 mM NaF, 1 mM sodium orthovanadate, 5 mM benzamidine) plus complete protease inhibitor cocktail tablets. […] Whole cell lysates were used to quantify phospho-AKT with the PathScan Phospho-Akt1 (Ser473) Sandwich ELISA Kit according to the manufacturer's instructions. Relative AKT phosphorylation in each experiment was quantified by OD450.\nFIG. 44 is a western blot of Tie2 immunoprecipitated from endothelial cells treated with DMSO control or the indicated compounds (D, C, B, or A), and then sequentially probed with an anti-Tie2 antibody to detect total Tie2 (lower blot) and an anti-phosphotyrosine antibody to detect phosphorylated Tie2 (upper blot). […] An increase in Tie2 phosphorylation compared to the DMSO control was not detected for compounds A, B, and C."}, "[1]": {"system": "Akt phosphorylation, a measure of Tie2 activation", "test": "Akt phosphorylation ELISA (PathScan Phospho-Akt1 (Ser473) Sandwich ELISA) in HUVECs", "format": "cell-based, human", "details": "10 minutes", "experimental": "Human umbilical vein endothelial cells (HUVECs) were isolated freshly from human placenta, grown in endothelial growth medium, and used before passage 6. To evaluate the effects of the compounds on phosphorylation of Tie2 and downstream signaling molecules, cells were serum-starved in endothelial basal medium without added growth factors for 3 hours before stimulation. Cells were treated for 10 minutes with vehicle (DMSO), or compounds A, B, C, or D in DMSO. Cells were lysed in RIPA buffer (150 mM NaCl, 1% IGEPAL CA-630, 0.05% sodium deoxycholate, 0.1% SDS, 20 mM Tris-HCl at pH 7.6, 1 mM EDTA, 1 mM NaF, 1 mM sodium orthovanadate, 5 mM benzamidine) plus complete protease inhibitor cocktail tablets. Tie2 was then immunoprecipitated from cell lysates with a mouse monoclonal antibody (clone 33) and probed sequentially with mouse monoclonal anti-phosphotyrosine (clone 4G10) and anti-Tie2 (clone 33). Whole cell lysates were used to quantify phospho-AKT with the PathScan Phospho-Akt1 (Ser473) Sandwich ELISA Kit according to the manufacturer's instructions. Relative AKT phosphorylation in each experiment was quantified by OD450.\nFIG. 45 represents data from an ELISA to determine Akt phosphorylation, a measure of Tie2 activation. Consistent with FIG. 44, compound D had the strongest effect on Tie2 activation, as determined by the high levels (OD450=1.2) of relative Akt phosphorylation even at the lowest dose of compound D (1 μg/mL). […] Akt phosphorylation further increased (OD450=0.45) when 10 μg/mL of compound A was used."}, "[2]": {"system": "human subjects with visual acuity loss due to diabetic macular edema", "test": "Study of human subjects with diabetic macular edema given the compound subcutaneously, then intravitreal anti-VEGF agent", "format": "in vivo", "experimental": "Described herein is a study of four human subjects with visual acuity loss due to diabetic macular edema (central retinal thickness [CRT] of more than 325 microns and best corrected visual acuity less than 70 letters) that were treated with subcutaneous injections of 5 mg of 4-{(S)-2-[(S)-2-methoxycarbonyl-amino]-3-phenylpropanamido]-2-[2-(thiophen-2-yl)thiazol-4-yl]ethyl}phenylsulfamic acid twice a day for 28 days. […] At any time during the course of the study, investigators could administer additional therapy of intravitreal injection of an anti-VEGF agent, for example, ranibizumab, bevacizumab, and/or aflibercept, if considered by the investigator to be medically necessary. Retinal thickness as measured by ocular coherence tomography and best-corrected visual acuity as measured by a standard vision test (ETDRS) were assessed at regular intervals during the 28 day active treatment phase and through the 2 month post-treatment observation phase, (Screening, Day 1 [baseline], Day 7, Day 14, Day 21, Day 28, Day 42, Day 56 and Day 84). The main efficacy outcomes for the study were change in CRT and visual acuity over time with treatment.\nFIG. 47 depicts the results of a study wherein 4 patients received 5 mg of 4-{(S)-2-[(S)-2-methoxycarbonylamino]-3-phenylpropanamido]-2-[2-(thiophen-2-yl)thiazol-4-yl]ethyl}phenylsulfamic acid subcutaneously twice daily for 28 days and subsequently were treated in one or both eyes (7 eyes total) with either ranibizumab (0.3 or 0.5 mg) or aflibercept (2 mg) by intravitreal injection at the discretion of the study investigator.\nFIG. 49 depicts the increased visual acuity of a study wherein 4 patients received 5 mg of 4-{(S)-2-[(S)-2-methoxycarbonylamino]-3-phenylpropanamido]-2-[2-(thiophen-2-yl)thiazol-4-yl]ethyl}phenylsulfamic acid subcutaneously twice daily for 28 days, and subsequently were treated with either ranibizumab (0.3 or 0.5 mg) or aflibercept (2 mg) by intravitreal injection at the discretion of the study investigator. FIG. 49 is read as follows. […] The mean change in Visual Acuity was 9 letters, approximately 3 to 5 letters more improvement than seen in the benchmark study of ranibizumab alone depicted in FIG. 48.\nFIG. 50 represents the results of a single patient. The eye having the greater Central Foveal Thickness (CFT) was chosen as the study eye. From day 1, the patient was given 5 mg of 4-{(S)-2-[(S)-2-methoxycarbonylamino]-3-phenylpropanamido]-2-[2-(thiophen-2-yl)thiazol-4-yl]ethyl}phenylsulfamic acid subcutaneously twice daily. At week 3 (21 days, indicated by arrow) the fellow eye was treated with 0.5 mg of ranibizumab by injection. At week 6 (42 days, indicated by arrow) the study eye was treated with 0.5 mg of ranibizumab.\nFIG. 51 represents the results of a single patient. The eye having the greater CFT was chosen as the Study Eye. The patient from day one was given 5 mg of 4-{(S)-2-[(S)-2-methoxycarbonylamino]-3-phenylpropanamido]-2-[2-(thiophen-2-yl)thiazol-4-yl]ethyl}phenylsulfamic acid subcutaneously twice daily. At week 4 (28 days, indicated by arrow) the fellow eye was rescued with 2 mg of aflibercept. […] At week 6 (42 days, indicated by arrow) the study eye was rescued with 2 mg of aflibercept. […] From onset of the study, a reduction was observed of CFT in the study eye and the fellow eye of approximately 300 μm and 280 μm, respectively."}, "[3]": {"test": "Room temperature aqueous solubility with solubilizing agents", "format": "physicochemical", "source_text": "The room temperature aqueous solubility (mg/mL) of the compound (4-{(S)-2[(S)-2-methoxycarbonylamino]-3-phenylpropanamido]-2-[2-(thiophen-2-yl)thiazol-4-yl]ethyl}phenylsulfamic acid) in water, HPβCD, Poloxamer 407, and sulfobutylether-β-cyclodextrin, is provided in TABLE III. Solubility in saline for the test compound is reduced presumably due to the common ion effect. All the solubilizing agents tested provided good improvements in aqueous solubility of the test compound.\nThe solubility (mg/mL) of the test compound in mixtures of HPβCD and PEG400 is illustrated in TABLE IV. Use of either HPβCD or PEG400 individually provided an increase in solubility. However, addition of PEG400 to a mixture of the test compound and HPβCD caused an erosion of solubility, with solubility being inversely proportional to the amount of PEG400."}}, "note": "Several values for one entry are separate records, joined by “and”; a condition that tells them apart may be missing. Equal entries are not always repeated.", "data": [{"smiles": "COC(=O)N[C@@H](Cc1ccccc1)C(=O)N[C@@H](Cc1ccc(NS(=O)(=O)O)cc1)c1csc(-c2cccs2)n1", "note": "[Compound D]", "values": [{"measurement": "Tie2 phosphorylation compared to the DMSO control", "setting": "Tie2", "result": "substantial increase"}, {"measurement": "relative Akt phosphorylation (OD450)", "setting": "[1]; 1 μg/mL", "result": 1.2}, {"measurement": "relative Akt phosphorylation (OD450)", "setting": "[1]; 3 μg/mL", "result": 3.1}, {"measurement": "relative Akt phosphorylation (OD450)", "setting": "[1]; 10 μg/mL", "result": "did not increase further"}, {"measurement": "Central Foveal Reduction, individual patient eyes", "setting": "[2]; 5 mg sc twice daily 28 days, then ranibizumab or aflibercept intravitreal, 14-28 days post anti-VEGF (FIG. 47), listed as 4-{(S)-2-[(S)-2-methoxycarbonylamino]-3-phenylpropanamido]-2-[2-(thiophen-2-yl)t", "result": "50-100 μm and 150-200 μm and 200-250 μm and 300-350 μm and 350-400 μm and 450-500 μm"}, {"measurement": "improvement of visual acuity", "setting": "[2]; 5 mg subcutaneously twice a day for 28 days, observed days 28 through 84", "result": "Improvement of visual acuity in these subjects was observed"}, {"measurement": "reduction in Central Foveal Thickness relative to ranibizumab injection in the study in FIG. 46", "setting": "[2]; compound sc then anti-VEGF versus ranibizumab alone", "result": "approximately double"}, {"measurement": "fall in CFT of the fellow eye", "setting": "[2]; single patient (FIG. 50), 5 mg sc twice daily, fellow eye given 0.5 mg ranibizumab at week 3, by week 4", "result": 350, "unit": "μm"}, {"measurement": "reduction in CFT in the study eye", "setting": "[2]; single patient (FIG. 50), day 21 to day 28, after ranibizumab to fellow eye", "result": "approximately 250 μm"}, {"measurement": "CFT of the study eye", "setting": "[2]; single patient (FIG. 50), week 6, before ranibizumab to study eye", "result": "approximately 775 μm"}, {"measurement": "CFT of the study eye", "setting": "[2]; single patient (FIG. 50), week 8", "result": "approximately 225 μm"}, {"measurement": "reduction of CFT in the fellow eye from onset of the study", "setting": "[2]; single patient (FIG. 51)", "result": "~280", "unit": "μm"}, {"measurement": "Solubility", "setting": "[3]; 0% HPβCD, 15% PEG400", "result": 30, "unit": "mg/mL"}, {"measurement": "Solubility", "setting": "[3]; 0% HPβCD, 30% PEG400", "result": 68, "unit": "mg/mL"}, {"measurement": "Solubility", "setting": "[3]; 15% HPβCD, 0% PEG400", "result": 59, "unit": "mg/mL"}, {"measurement": "Solubility", "setting": "[3]; 15% HPβCD, 5% PEG400", "result": 57, "unit": "mg/mL"}, {"measurement": "Solubility", "setting": "[3]; 15% HPβCD, 10% PEG400", "result": 34, "unit": "mg/mL"}, {"measurement": "Solubility", "setting": "[3]; 15% HPβCD, 15% PEG400", "result": 6, "unit": "mg/mL"}]}]}
